{"source": "paper PMC3646808", "about": "“Aggregate-Reactivation Activity of the Molecular Chaperone ClpB from Ehrlichia chaffeensis” (PLoS ONE, 2013)", "key": {"[1]": {"target": "T1, EhClpB (Ehrlichia chaffeensis, UniProt Q2GH96)", "T1 construct": "gene clpB", "T1 sequence (Q2GH96 entry or part of it)": "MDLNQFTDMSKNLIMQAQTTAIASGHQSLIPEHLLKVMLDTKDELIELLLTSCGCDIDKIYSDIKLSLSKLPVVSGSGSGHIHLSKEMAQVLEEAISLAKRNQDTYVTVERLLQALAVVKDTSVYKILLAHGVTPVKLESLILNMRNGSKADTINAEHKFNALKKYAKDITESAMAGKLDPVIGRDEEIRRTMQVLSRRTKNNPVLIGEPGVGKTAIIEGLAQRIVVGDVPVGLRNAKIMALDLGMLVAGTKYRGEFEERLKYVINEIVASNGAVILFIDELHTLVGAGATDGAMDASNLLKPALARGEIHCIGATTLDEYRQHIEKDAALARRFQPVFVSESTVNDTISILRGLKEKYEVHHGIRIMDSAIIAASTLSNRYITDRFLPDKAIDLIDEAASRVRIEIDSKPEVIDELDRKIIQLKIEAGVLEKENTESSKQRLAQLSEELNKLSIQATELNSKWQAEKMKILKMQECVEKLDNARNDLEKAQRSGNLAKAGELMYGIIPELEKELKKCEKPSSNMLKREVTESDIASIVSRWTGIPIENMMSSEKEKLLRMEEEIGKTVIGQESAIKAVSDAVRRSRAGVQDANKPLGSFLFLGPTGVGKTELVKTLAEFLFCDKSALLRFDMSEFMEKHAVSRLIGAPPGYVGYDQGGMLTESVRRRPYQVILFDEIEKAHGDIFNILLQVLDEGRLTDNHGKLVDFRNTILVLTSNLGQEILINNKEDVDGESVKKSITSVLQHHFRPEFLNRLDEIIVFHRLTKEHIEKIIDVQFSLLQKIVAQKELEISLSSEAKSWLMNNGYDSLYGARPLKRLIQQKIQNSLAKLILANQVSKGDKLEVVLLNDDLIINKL", "settings": "5 mM ATP, 10 mM MgCl2, 100 mM Tris/HCl pH 8.0, 37 °C; basal activity"}, "[2]": {"target": "T2, EcClpB (Escherichia coli, UniProt P63284)", "T2 construct": "gene clpB; purified, produced or obtained as previously described; hexamer", "T2 sequence (P63284 whole entry)": "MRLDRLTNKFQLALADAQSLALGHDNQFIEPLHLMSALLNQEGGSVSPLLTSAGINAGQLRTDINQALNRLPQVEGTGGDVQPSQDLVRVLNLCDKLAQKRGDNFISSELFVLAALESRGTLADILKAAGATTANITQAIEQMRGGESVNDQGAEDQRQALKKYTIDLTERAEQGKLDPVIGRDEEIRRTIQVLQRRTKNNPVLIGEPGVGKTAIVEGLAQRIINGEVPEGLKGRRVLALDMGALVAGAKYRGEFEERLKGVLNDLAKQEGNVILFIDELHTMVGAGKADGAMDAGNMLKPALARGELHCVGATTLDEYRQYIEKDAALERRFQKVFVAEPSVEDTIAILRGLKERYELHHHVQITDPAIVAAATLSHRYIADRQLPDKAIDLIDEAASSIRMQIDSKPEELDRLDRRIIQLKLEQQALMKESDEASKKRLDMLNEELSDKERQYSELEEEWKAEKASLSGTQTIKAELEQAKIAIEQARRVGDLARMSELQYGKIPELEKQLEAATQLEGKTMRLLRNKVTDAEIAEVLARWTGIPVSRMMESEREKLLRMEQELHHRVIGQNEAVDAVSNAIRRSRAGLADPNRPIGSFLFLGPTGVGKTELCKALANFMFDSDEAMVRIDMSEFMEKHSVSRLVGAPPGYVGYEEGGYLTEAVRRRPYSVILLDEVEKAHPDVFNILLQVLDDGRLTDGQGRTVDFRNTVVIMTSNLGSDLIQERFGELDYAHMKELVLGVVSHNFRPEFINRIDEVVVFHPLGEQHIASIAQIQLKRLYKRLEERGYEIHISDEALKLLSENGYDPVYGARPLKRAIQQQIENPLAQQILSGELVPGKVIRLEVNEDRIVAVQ", "experiment": "phosphate release ATPase assay", "type": "biochemical", "settings": "5 mM ATP, 10 mM MgCl2, 100 mM Tris/HCl pH 8.0, 37 °C; basal activity"}, "[3]": {"target": "T2, EcClpB", "experiment": "filter retention with SDS-PAGE, nucleotide-induced binding to aggregated G6PDH", "settings": "6 mM nucleotide, 20 mM Mg(OAc)2, 50 mM Tris/HCl pH 7.5, 30 °C; indirect read-out"}, "[4]": {"target": "ClpB from Ehrlichia chaffeensis (E. chaffeensis)", "experiment": "AUC; sedimentation velocity, 48,000 rpm, 20°C, 0.3 mg/ml protein in 50 mM Hepes/KOH pH 7.5, 0.2 M KCl, 20 mM MgCl2, 1 mM EDTA, 2 mM β-mercaptoethanol, with 2 mM ATPγS"}}, "data": [{"molecule": "Nc1ncnc2c1ncn2[C@@H]1O[C@H](COP(=O)(O)OP(=O)(O)OP(=O)(O)O)[C@@H](O)[C@H]1O", "note": "[ATP]", "values": [{"measurement": "phosphate release ATPase assay", "setting": "[1]", "result": "the basal ATPase of EhClpB was similar to that of the purified EcClpB"}, {"measurement": "phosphate release ATPase assay", "setting": "[2]", "result": "the basal ATPase of EhClpB was similar to that of the purified EcClpB"}]}, {"molecule": "Nc1ncnc2c1ncn2[C@@H]1O[C@H](COP(=O)(O)OP(=O)(O)OP(O)(O)=S)[C@@H](O)[C@H]1O", "note": "[ATPγS, adenosine-5'-(γ-thio)-triphosphate]", "values": [{"measurement": "filter retention with SDS-PAGE, nucleotide-induced binding to aggregated G6PDH", "setting": "[3]", "result": "only ATPγS induces significant binding of EcClpB to the aggregates"}]}, {"molecule": "ClpB from Ehrlichia chaffeensis (natural protein)", "values": [{"measurement": "stoichiometry N", "setting": "[4]", "result": 6}]}]}
